Measured values as given in PMC11845477, “Exploring the principles behind antibiotics with limited resistance” (Nature Communications, 2025).

Tests used:
[1] = system: P. aeruginosa ATCC BAA-3107 (SEN) and P. aeruginosa LESB58 (MDR); assay: microbe, parasite or virus in culture; assay type: cell-based, Pseudomonas aeruginosa; conditions: across three biological replicates
Procedure, shortened: (§1)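 Inoculum was 5 × 10^5 cells/mL in cation-adjusted MHB2 (SCH79797 excepted) across 11–16-step dilution series in duplicate. Relative MIC divides evolved-strain MIC by ancestor MIC.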

[2] = system: K. pneumoniae ATCC 10031 (SEN) and K. pneumoniae ATCC 700603 (MDR); assay: Adaptive laboratory evolution (ALE), relative MIC of evolved lines; assay type: cell-based, Klebsiella pneumoniae
Procedure, shortened: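 Ten parallel populations per antibiotic–ancestor pair were evolved in MHB at 37 °C, starting near 50% growth-inhibiting drug. Every 72 h they were passaged into 0.5–2.5× increasing concentrations, keeping the highest-drug well with OD600 > 0.2.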

[3] = system: K. pneumoniae ATCC 10031 (SEN) and K. pneumoniae ATCC 700603 (MDR); assay: microbe, parasite or virus in culture; assay type: cell-based, Klebsiella pneumoniae; conditions: for MIC: across three biological replicates
Procedure, shortened: as §1

[4] = KP-SEN (Klebsiella pneumoniae ATCC 10031), evolved line 1
[5] = KP-SEN (Klebsiella pneumoniae ATCC 10031), evolved line 4
[6] = KP-SEN (Klebsiella pneumoniae ATCC 10031), evolved line 8
[7] = KP-SEN (Klebsiella pneumoniae ATCC 10031), evolved line 9
[8] = KP-SEN, Klebsiella pneumoniae ATCC 10031, evolved line 5

CC(C)c1ccc(Cn2ccc3c4c(N)nc(NC5CC5)nc4ccc32)cc1 [SCH79797]
>32 µg/mL: MIC ([1]; Pseudomonas aeruginosa LESB 58 (PA-MDR))
1.505 log10: Relative MIC (log10) [2, 8]
8: Relative MIC ([2]; ALE, Klebsiella pneumoniae ATCC 10031 (KP-SEN), evolved line 8) | Relative MIC ([2]; ALE, Klebsiella pneumoniae ATCC 10031 (KP-SEN), evolved line 9) | Relative MIC ([2]; KP-SEN (K. pneumoniae ATCC 10031), evolved line 8 vs ancestor) | Relative MIC ([2]; KP-SEN (K. pneumoniae ATCC 10031), evolved line 9 vs ancestor) | Relative MIC [2, 6] | Relative MIC [2, 7] | Relative MIC ([2]; Klebsiella pneumoniae ATCC 10031 (KP-SEN), evolved line 8) | Relative MIC ([2]; Klebsiella pneumoniae ATCC 10031 (KP-SEN), evolved line 9)
64 µg/mL: MIC of evolved line ([2]; KP-SEN (K. pneumoniae ATCC 10031), evolved line 1 of the given antibiotic) | MIC of evolved line ([2]; KP-SEN (K. pneumoniae ATCC 10031), evolved line 4 of the given antibiotic)
32 µg/mL: MIC ([1]; Pseudomonas aeruginosa ATCC BAA-3107 (PA-SEN)) | MIC of evolved line ([2]; KP-SEN (K. pneumoniae ATCC 10031), evolved line 8 of the given antibiotic) | MIC of evolved line ([2]; KP-SEN (K. pneumoniae ATCC 10031), evolved line 9 of the given antibiotic) | MIC ([3]; Klebsiella pneumoniae ATCC 700603 (KP-MDR))
16 µg/mL: MIC of evolved line ([2]; KP-SEN (K. pneumoniae ATCC 10031), evolved line 2 of the given antibiotic) | MIC of evolved line ([2]; KP-SEN (K. pneumoniae ATCC 10031), evolved line 7 of the given antibiotic)
32: Relative MIC ([2]; ALE, Klebsiella pneumoniae ATCC 10031 (KP-SEN), evolved line 5) | Relative MIC ([2]; KP-SEN (K. pneumoniae ATCC 10031), evolved line 5 vs ancestor) | Relative MIC [2, 8] | Relative MIC ([2]; Klebsiella pneumoniae ATCC 10031 (KP-SEN), evolved line 5)
0.9031 log10: Relative MIC (log10) [2, 6] | Relative MIC (log10) [2, 7]
4 µg/mL: MIC of ancestor ([3]; Klebsiella pneumoniae ATCC 10031 (KP-SEN), ancestor strain, sheet fig 2a) | MIC ([3]; Klebsiella pneumoniae ATCC 10031 (KP-SEN)) | MIC of ancestor ([3]; ancestor KP-SEN (Klebsiella pneumoniae ATCC 10031))
1.204 log10: Relative MIC (log10) [2, 4] | Relative MIC (log10) [2, 5]
16: Relative MIC ([2]; ALE, Klebsiella pneumoniae ATCC 10031 (KP-SEN), evolved line 1) | Relative MIC ([2]; ALE, Klebsiella pneumoniae ATCC 10031 (KP-SEN), evolved line 4) | Relative MIC ([2]; KP-SEN (K. pneumoniae ATCC 10031), evolved line 1 vs ancestor) | Relative MIC ([2]; KP-SEN (K. pneumoniae ATCC 10031), evolved line 4 vs ancestor) | Relative MIC [2, 4] | Relative MIC [2, 5] | Relative MIC ([2]; Klebsiella pneumoniae ATCC 10031 (KP-SEN), evolved line 1) | Relative MIC ([2]; Klebsiella pneumoniae ATCC 10031 (KP-SEN), evolved line 4)
8 µg/mL: MIC of evolved line ([2]; KP-SEN (K. pneumoniae ATCC 10031), evolved line 3 of the given antibiotic) | MIC of evolved line ([2]; KP-SEN (K. pneumoniae ATCC 10031), evolved line 6 of the given antibiotic) | MIC of evolved line ([2]; KP-SEN (K. pneumoniae ATCC 10031), evolved line 10 of the given antibiotic)
4: Relative MIC ([2]; ALE, Klebsiella pneumoniae ATCC 10031 (KP-SEN), evolved line 2) | Relative MIC ([2]; ALE, Klebsiella pneumoniae ATCC 10031 (KP-SEN), evolved line 7) | Relative MIC ([2]; KP-SEN (K. pneumoniae ATCC 10031), evolved line 2 vs ancestor) | Relative MIC ([2]; KP-SEN (K. pneumoniae ATCC 10031), evolved line 7 vs ancestor) | Relative MIC ([2]; KP-SEN (Klebsiella pneumoniae ATCC 10031), evolved line 2) | Relative MIC ([2]; KP-SEN, Klebsiella pneumoniae ATCC 10031, evolved line 7) | Relative MIC ([2]; Klebsiella pneumoniae ATCC 10031 (KP-SEN), evolved line 2) | Relative MIC ([2]; Klebsiella pneumoniae ATCC 10031 (KP-SEN), evolved line 7)
128 µg/mL: MIC of evolved line ([2]; KP-SEN (K. pneumoniae ATCC 10031), evolved line 5 of the given antibiotic)
2: Relative MIC ([2]; ALE, Klebsiella pneumoniae ATCC 10031 (KP-SEN), evolved line 3) | Relative MIC ([2]; ALE, Klebsiella pneumoniae ATCC 10031 (KP-SEN), evolved line 6) | Relative MIC ([2]; ALE, Klebsiella pneumoniae ATCC 10031 (KP-SEN), evolved line 10) | Relative MIC ([2]; KP-SEN (K. pneumoniae ATCC 10031), evolved line 3 vs ancestor) | Relative MIC ([2]; KP-SEN (K. pneumoniae ATCC 10031), evolved line 6 vs ancestor) | Relative MIC ([2]; KP-SEN (K. pneumoniae ATCC 10031), evolved line 10 vs ancestor) | Relative MIC ([2]; KP-SEN (Klebsiella pneumoniae ATCC 10031), evolved line 3) | Relative MIC ([2]; KP-SEN (Klebsiella pneumoniae ATCC 10031), evolved line 6) | Relative MIC ([2]; KP-SEN (Klebsiella pneumoniae ATCC 10031), evolved line 10) | Relative MIC ([2]; Klebsiella pneumoniae ATCC 10031 (KP-SEN), evolved line 3) | Relative MIC ([2]; Klebsiella pneumoniae ATCC 10031 (KP-SEN), evolved line 6) | Relative MIC ([2]; Klebsiella pneumoniae ATCC 10031 (KP-SEN), evolved line 10)
